Experimental findings from patent US20230011398A1, “COMBINATION THERAPY APPROACH TO ELIMINATE HIV INFECTIONS” (priority 2019, published 2023) are described below.

Data set [1] has as its system CMT latently infected with HIV-1. Kind of data set: HIV-1 latency reversal in latently infected central memory T cells (p24 staining, HIV-1 mRNA RT-PCR). The format is cell-based, human. The note with it: latently infected cells, pol RT-PCR. The text has this: Flow cytometry. The following antibodies from Biolegend were used for flow cytometry: Pacific Blue-anti-mouse CD45 (1:100, 103126, clone 30-F11,) APC-anti-human CD45 (1:100, 304012, clone HI30), Pacific Blue-anti-human CD19 (1:100, 302232, clone HIB19), PE-anti-human CD4 (1:100, 317414, clone OKT4), APC/Fire-750-anti-human CD8 (1:100, 34474, clone SK1), FITC-anti-human CD56 (1:100, 392413, clone QA17A16), Pacific Blue-anti-human CD19 (1:100, 302232, clone HIB19), Pacific Blue-anti-human CD3 (1:100, 300329, clone HIT3a), PE/Cy7-anti-HLA-HLA-DR, DP, DQ (1:100, 361708, clone Tü139), PerCP/Cy5.5-anti-human CD11b (1:100, 301327, clone ICRF44), APC/Fire-750-anti-human CD163 (1:100, 333633, clone GHI/61), PE-anti-human CD123 (1:100, 306005, clone 6H6), Alexa Fluor 488 anti-human CD11c (1:100, 301618, clone 3.9), PerCP/Cy5.5-anti-human CD3 (1:100, 300328, clone HIT3a), PerCP/Cy5.5 anti-human CD123 (1:100, 306016, clone 6H6), FITC-anti-mouse CD45 (1:100, 103108, clone 30-F11), PE/Cy7 anti-human CD197 (CCR7) (1:100, 353226, clone G043H7), PE-anti-human CD45R0 (1:100, 304244, clone UCHL1), FITC-anti-human CD45RA (1:100, 304148, clone HI100) and Alexa Fluor 488-anti-CD68 (1:30, 333812, clone Y1/82A), PerCP/Cy5.5-anti-human CD19 (1:100, 302230, clone HIB19), PE-anti-human CD27 (1:100, 356406, clone M-T271) and Pacific Blue-anti-human IgD (1:100, 348224, clone IA6-2). PE-anti-human CD3 (1:100, 556612, clone SP34) and V50-anti-human CD4 (1:100, 560345, clone RPA-T4) were from BD Biosciences. The cells stained with indicated antibodies were analyzed using a BD LSR II flow cytometer (BD Biosciences). To detect HIV-1 p24, spleen cells from Hu-HSC mice were stimulated with 5 μg/ml PHA (Sigma) and 6 ng/ml IL-2 (Biolegend). The cells were stained for T cell markers, followed by fixation and permeabilization using the Cytofix/Cytoperm buffer (BD Bioscience) and intracellular staining with PE-conjugated anti-p24 (1:30, 6604667, clone KC57, Beckman Coulter). The cells were analyzed by flow cytometry using a BD LSR II flow cytometer (BD Bioscience) and FlowJo software (version 10.5.3, BD Bioscience).
T cell isolation and infection with HIV-1. Peripheral blood mononuclear cells (PBMCs) of anonymous healthy donors from the Gulf Coast Blood Center were used to purify CD4^+ T cells with anti-CD4 MACS beads (Miltenyi Biotec). CD3^+CD4^+CD45RA^+CD45RO^−CCR7^+ naïve T cells, CD3^+CD4^+CD45RA^−CD45RO^+CCR7+ central memory T cells (CMT) and CD3^+CD4^+CD45RA^−CD45RO^+CCR7^− effector memory T cells (EMT) were sorted using a BD FACSAria flow cytometer (BD Bioscience). Naive CD4^+ T cells were stimulated with 5 μg/ml PHA and 6 ng/ml IL-2 in RPMI complete medium for 2 days to generate activated CD4^+ T cells. Sorted T cell subsets or activated T cells were infected with HIV-1 CXCR4-tropic NL4-3 or CCRS-tropic AD8 (both virus clones were obtained from the NIH AIDS Reagent Program) at the indicated MOI for 2 h. The cells were washed with PBS and cultured in RPMI complete medium containing 30 nM CCL19 (Biolegend) and 0.3 ng/ml IL-2 (Biolegend) and for 4 days to establish latent HIV infection as described.
Naïve T cells, activated T cells, CMT or EMT with or without infection with HIV-1 (NL4-3, 1 MOI) were cultured for 4 days in the presence of 30 nM CCL19 and 0.3 ng/ml IL-2 for 4 days to establish latent HIV infection. The cells with or without HIV-1 infections were stimulated with 0.1 μM IDB (Ingenol-3,20-dibenzonate, ENZO Life Sciences) in the presence of 0.2 μM ABT-263 (Adooq Bioscience), 2 μM SAR405 (MedChemExpress) or 10 μM chloroquine (CQ, Sigma) as indicated for 48 h. The cells were then incubated with 1 μM FITC-DEVD-FMK (Biovision), followed by staining with APC-Annexin V (Biolegend) and intracellular staining with PE-anti-HIV p24. The cells were analyzed by flow cytometry. The percentage of cell death was calculated by the loss of live cells negative for annexin V and DEVD staining by comparing treated and untreated groups: (untreated—treated)/untreated x 100%. […]

Data set [2] concerns HIV-1-infected cells and uninfected bystander T cells. Kind of data set: Mixed culture of HIV-1-infected and CellTrace Violet-labeled uninfected T cells. The note with it: alone or together, 0.2 μM BMS-626529 present, 48 h. Here is the method: To determine the specificity in the killing of HIV-1 infected cells, uninfected CD4 cells were labeled with CellTrace Violet dye (ThermoFisher Scientific) and mixed with HIV-1-infected cells at the ratio of 1:1. The cells were resuspended in RIPMI complete medium containing 0.2 μM BMS-626529, with 0.1 μM IDB, 0.2 μM ABT-263 and 2 μM SAR405 as indicated for 48 h. The cells were incubated with 1 μM FITC-DEVD-FMK, followed by staining with APC-Annexin and analyses by flow cytometry.

On to `CC1=C[C@]23C(=O)[C@@H](C=C(COC(=O)c4ccccc4)[C@@H](O)[C@]2(O)[C@H]1OC(=O)c1ccccc1)[C@H]1[C@@H](C[C@H]3C)C1(C)C` [IDB, ingenol 3,20-dibenzoate], for which the “latency reversal observed by expression of HIV-1 mRNA after stimulation” value in data set [1] was “Latency reversal was also observed”. Also, in data set [2], the “killing of HIV-1-infected cells in mixed culture” value is “killed HIV-1-infected cells” and the “killing of uninfected bystander cells in mixed culture” value is recorded as “resistant”.
